Test [1] deals with Arachidonic Acid-Induced Cellular Infiltration. The test can be described thus: Arachidonic acid-induced air pouch inflammation. It counts as in vivo, Lewis rats. To be noted: 3 hours after arachidonic acid. The source says: (§1) In the following Examples where mice were used, they were male Balb/c mice (20-28 g), and where rats were used, they were male Lewis rats (180-210 g). All mice and rats were obtained from Charles River Breeding Laboratories, Kingston, N.Y. Within a single experiment, mice and rats were sex and age matched.
(§2) The compounds of Formula (IA) were used either as the free base or in the appropriate salt form. Levamisole was used as the hydrochloride salt. The compounds were homogenized in 0.5% tragacanth. Compounds were administered by gavage at the indicated dose in a final volume of 10 ml/kg. Nordihydroguaiaretic acid (NDGA) was solubilized in dimethylacetamide and diluted with olive oil for subcutaneous administration.
(§3) Rats were shaved on the dorsal flank, and then injected subcutaneously one day later with 20 ml of air to form a defined pouch, by the method of Sedgwick et al., J. Pathology, 141, 483-495 (1983). The air pouch was reinflated as necessary over the next 6 days. To assay anti-inflammatory activity, animals were treated orally with test compound or vehicle (10 ml/kg) one hour before injection of 2.0 ml of a 2.0% carrageenan suspension containing 200 units/ml penicillin and 100 »g/ml streptomycin into the air pouch. In other experiments, 5 ml of 0.1% arachidonic acid in 0.2 M bicarbonate buffer was injected two hours after drug treatment. Animals were sacrificed using CO₂ three hours after instillation of irritant. The exudate was then aspirated from the pouch and neutrophil count and differential cell count were measured.

The test system of test [2] is Polymorphonuclear Leukocytes. The test can be described thus: Mouse Carrageenan Peritonitis (PMN infiltration). In kind it is in vivo, Balb/c mice. The conditions noted are these: p.o.
Text: as §1, §2
Mice were pretreated with either the test compound or vehicle one hour before the intraperitoneal injection of a 1.0% carrageenan suspension in saline (0.2 ml/ mouse). Mice were sacrificed by cervical dislocation two hours after injection, and 3.0 ml of phosphate buffered saline, without Ca⁺⁺ or Mg⁺⁺, was injected into the peritoneum. Following massage, a 2.0 ml aliquot of the lavage fluid was removed, and the total cell count determined on a Coulter counter and differential cell count determined by microscopic examination of Giesma-stained slides.

Test [3] concerns Experimental Allergic Encephalomyelitis. Put plainly: Experimental allergic encephalomyelitis, hindleg paralysis. It counts as in vivo, Female Lewis rats. The conditions noted are these: p.o. days 0-4, 7-11, 14-18. The method, then:
EAE is induced in Female (Charles River) Lewis rats by a single intradermal injection of 0.1 ml of an encephalitogenic emulsion consisting of equial parts of a 50% w/v homogenate of guinea pig spinal cord and mid-brain in 0.5% aqueous phenol and Freund's complete adjuvant (4 mg/ml killed, dried M. butyricum) into a hindpaw (left) footpad. […] Any animal which becomes paralyzed during the course of the experiment is considered to have developed EAE whether or not the paralysis is permanent. Test compounds are administered daily beginning on the day of injection, for 19 days, exclusive of days 5, 6 12 and 13. Drug activity is determined by comparing the indicidence of EAE (paralysis) of the treated group with a control (vehicle) group. The level of significant difference between the treated groups and control groups is determined by a Chi-square test using a 2x2 contingency table. Body weight changes from day 0 are also statistically compared to the control group using a Student "t" test.

The target in a further test is T1, 5-LO (Rattus norvegicus, UniProt P12527).
T1 construct: The activities of these enzymes in extracts of RBL-1 cells were assayed; host or cells: RBL-1 cells, disrupted by nitrogen cavitation; 10,000 x g or 100,000 x g supernatant
T1 sequence (P12527 1-673): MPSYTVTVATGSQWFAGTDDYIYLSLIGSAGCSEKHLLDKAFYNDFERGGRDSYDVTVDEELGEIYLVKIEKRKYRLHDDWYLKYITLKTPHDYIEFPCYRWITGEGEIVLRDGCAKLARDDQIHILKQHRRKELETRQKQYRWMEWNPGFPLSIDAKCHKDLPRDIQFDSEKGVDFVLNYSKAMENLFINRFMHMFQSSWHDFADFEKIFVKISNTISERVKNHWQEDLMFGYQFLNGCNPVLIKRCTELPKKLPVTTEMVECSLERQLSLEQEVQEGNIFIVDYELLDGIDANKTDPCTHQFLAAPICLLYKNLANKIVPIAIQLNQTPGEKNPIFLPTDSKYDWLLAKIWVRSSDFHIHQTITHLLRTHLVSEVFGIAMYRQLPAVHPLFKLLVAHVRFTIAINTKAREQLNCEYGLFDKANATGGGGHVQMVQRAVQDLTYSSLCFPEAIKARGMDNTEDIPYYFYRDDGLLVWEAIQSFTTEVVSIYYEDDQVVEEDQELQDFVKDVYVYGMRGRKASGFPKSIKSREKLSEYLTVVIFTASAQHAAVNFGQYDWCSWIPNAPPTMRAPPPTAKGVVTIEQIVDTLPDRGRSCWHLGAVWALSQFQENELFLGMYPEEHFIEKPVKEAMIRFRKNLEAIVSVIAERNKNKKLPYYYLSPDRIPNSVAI
Put plainly: di-HETE production by RBL-1 high speed supernatant. The conditions noted are these: concentrations up to 10⁻⁴M; soluble extract of RBL-1 cells. In kind it is biochemical. The method, then:
(§4) For in vitro experiments, compounds were dissolved at appropriate concentrations in ethanol or DMSO (dimethylsulfoxide) (final concentration <1.0%) and then diluted to final concentrations using the buffers indicated in the text.
The activities of these enzymes in extracts of RBL-1 cells were assayed using the method of Jakschik and Lee, Nature, 287, 51-52 (1980). RBL-1 cells were obtained from the American Type Culture Collection (#CRL 1378) and were grown at 37°C (5% CO₂ in air) in spinner culture in MEM supplemented with 10% heat inactivated fetal calf serum. Harvested cells were washed with 50 mM sodium phosphate buffer, pH 7.0, containing 1 mM EDTA and 0.1% gelatin, resuspended in fresh buffer (5 x 10⁷ cells/ml) and disrupted by nitrogen cavitation using the Parr bomb at 750 psi for 10 min. The broken cell extract was then centrifuged at 10,000 x g for 20 minutes and the supernatant centrifuged at 100,000 x g for 60 minutes. Aliquots (0.25 mls) of the supernatant were preincubated with or without drugs for 10 min, after which 10 ul CaCl₂ (50 mM) was added and the reaction was initiated with 2.5 ul of 2.5 mM arachidonic acid-1-¹⁴C (final concentration was […]; specific activity 20,000 dpm/nmole). After incubation for 3 min at 37°C, the reaction was terminated by addition of 2 volumes (0.5 ml) ice cold acetone and the sample was allowed to deproteinize on ice for 10 min prior to centrifugation at 1,000 x g for 10 min. The deproteinized supernatant was adjusted to pH 3.5 with 2N formic acid and extracted with 2 volumes of ice cold ethyl acetate. The extracted samples were dried under argon, redissolved in ethyl acetate and applied to Whatman LK5D thin layer chromatography (TLC) plates which were developed using the A-9 solvent system [organic phase of ethyl acetate: 2,2,5-trimethylpentane:acetic acid: water (110:50:20:10)] described by Hamberg and Samuelsson, J. Biol. Chem., 241, 257-263 (1966). Arachidonic acid, 5-HETE, di-HETE and PGD₂ were quantified with a Berthold LB 2832 autoscanner.
The 5-lipoxygenase and LTA₄ synthetase activities were further studied under the following conditions. An additional centrifugation of the RBL-1 supernatant was run at 100,000 x g for 60 min, to remove the particulate cyclooxygenase activity. Sample incubation was done under conditions similar to those described above, i.e., 2 mM CaCl₂ and 25 uM arachidonic acid-1-¹⁴C, however, with an incubation time of 5 min at […]. Under these conditions, only the 5-lipoxygenase pathway metabolites were detectable. The 5-HETE and di-HETEs were formed at a linear rate, and […] amounts of the arachidonic acid-1-¹⁴C substrate were utilized.

Test [4] deals with Carrageenan-Induced Cellular Infiltration. Put plainly: Carrageenan-induced air pouch inflammation. In kind it is in vivo, Lewis rats. To be noted: 3 hours after carrageenan.
Text: as §1, §2, §3

The subject of test [5] is Arachidonic Acid-Induced Rat Paw Edema. The test can be described thus: Arachidonic acid-induced rat paw swelling. It counts as in vivo, Lewis rats. To be noted: read at 2 hours; for Change in Paw Volume: one hour before arachidonic acid.
Text: as §1, §2

Test [6] concerns Arachidonic Acid-Induced Inflammation of the Mouse Ear. The test can be described thus: Arachidonic acid-induced mouse ear inflammation. It counts as in vivo, Balb/c mice.
Text: as §1, §2
Arachidonic acid in acetone (2 mg/20 ul) was applied to the inner surface of the left ear. The thickness of both ears was then measured with a dial micrometer one hour after treatment, and the data were expressed as the change in thickness (10⁻³ cm) between treated and untreated ears.
Test compounds were given orally in 0.5% tragacanth at the times indicated in the text prior to the topical application of arachidonic acid.
Parenteral administration of compound was accomplished by subcutaneous injection of solution as indicated.

The test system of test [7] is Production of PGE₂ by Mouse Peritoneal Exudate Cells. Put plainly: PGE2 production by peritoneal macrophages. It counts as cell-based. The method, then: as §4
Mice were injected intraperitoneally with 350 »g Corynebacterium parvum and the peritoneal exudate cell population was harvested 12-14 days later by peritoneal lavage with cold phosphate-buffered saline, and resuspended in Eagles minimal essential medium supplemented with 5% fetal calf serum. […] Test compounds were added (100 ul) to bring the final volume to 1.0 ml. Lipopolysaccharide (5 »g/ml) was then added to stimulate PGE₂ synthesis. After incubation at 37°C for 2 hours, cell-free supernatants were harvested, placed in polypropylene tubes and frozen at -20°C until assayed for their PGE₂ content using a commercial radioimmunoassay kit. IC₅₀ is the concentration that inhibits 50% of control activity.

Where two headings read alike, the source gives them in different places. Marks after values point to notes of the source that are not given here.

Turning to `COc1ccc2c(c1)c(CC(=O)O)c(C)n2C(=O)c1ccc(Cl)cc1` [Indomethacin], in test [1] (5 mg/kg), the “Cellular Infiltrate (Total x 10⁻⁶) MN” value worked out at 7.0 ± 6.4 x 10⁻⁶, the “Cellular Infiltrate (Total x 10⁻⁶) PMN” value is 5.0 ± 3.8 x 10⁻⁶ and the “Exudate Volume” value was found to be 2.5 ± 0.8 mL. In addition, in test [2] (Table 3, 10 mg/kg), the “% Change” value is -12^b % and the “PMN x 10⁻⁵/ml (mean ± S.D.)” value is listed as 8.20 ± 2.65 x 10⁻⁵/ml. Moreover, in test [3] (2 Mg/kg/day), the “HINDLEG PARALYSIS - CUMULATIVE INCIDENCE DAY 9 TO 13” value is reported as 6/11 and the “HINDLEG PARALYSIS - CUMULATIVE INCIDENCE DAY 14 TO 18” value is reported as 10/11. At 5-LO, the “effect on eicosanoid formation (di-HETE production)” value was “inactive”. Besides, in test [4] (5 mg/kg), the “Cellular Infiltrate (Total x 10⁻⁶) MN” value worked out at 4.0 ± 0.8 x 10⁻⁶, the “Cellular Infiltrate (Total x 10⁻⁶) PMN” value is reported as 2.8 ± 0.7^d x 10⁻⁶ and the “Exudate Volume” value turned out to be 2.0 ± 0.5 mL. Also, in test [5] (5 mg/kg), the “Change in Paw Volume” value turned out to be 0.29 ± 0.06 mL and the “(% Inhibition) of change in paw volume” value is reported as 0%. Further, the “Increase in Ear Thickness at 1 Hour (x 10⁻³ cm)” value in test [6] (Table 7, 10 mg/kg, p.o.) came out at 24.4 ± 0.8 x 10⁻³ cm.
For `CN(Cc1cnc2nc(N)nc(N)c2n1)c1ccc(C(=O)N[C@@H](CCC(=O)O)C(=O)O)cc1` [METHOTREXATE], in test [3] (0.3 Mg/kg/day), the “HINDLEG PARALYSIS - CUMULATIVE INCIDENCE DAY 9 TO 13” value was 0/11** and the “HINDLEG PARALYSIS - CUMULATIVE INCIDENCE DAY 14 TO 18” value is given as 0/11**.
As for `O=C1CCN(c2ccccc2)N1` [Phenidone], the IC50 in test [7] (Macrophage, read-out: IC₅₀ production of PGE₂ by inflammatory macrophages) stood at 28 µM; in test [7] (Peritoneal macrophage, Table 10, LPS-stimulated, C. parvum-elicited peritoneal exudate cells, read-out: IC₅₀ (»M) production of PGE₂), 28 µM. Further, the “Cellular Infiltrate (Total x 10⁻⁶) MN” value was 2.2 ± 1.5^d x 10⁻⁶ in test [1] (100 mg/kg) and 3.5 ± 1.4 x 10⁻⁶ in test [4] (100 mg/kg). The “Cellular Infiltrate (Total x 10⁻⁶) PMN” value is listed as 1.3 ± 0.8^e x 10⁻⁶ in test [1] (100 mg/kg) and 1.7 ± 0.6^d x 10⁻⁶ in test [4] (100 mg/kg). Moreover, the figures for the “Exudate Volume” value in test [1] (100 mg/kg) and in test [4] (100 mg/kg) were 2.8 ± 0.4 mL and 1.5 ± 0.8 mL, respectively. Also, the “% Change” value in test [2] (Table 1, 50 mg/kg) is listed as -51^c %; in test [2] (Table 1, 100 mg/kg, PMN vs vehicle), -36^d %; in test [2] (Table 1, 200 mg/kg), -94^b %; in test [6] (Table 7, 50 mg/kg, p.o.), -57^b %. Moreover, the “PMN x 10⁻⁵/ml (mean ± S.D.)” value in test [2] (Table 1, 50 mg/kg) is listed as 5.30 ± 2.25 x 10⁻⁵/ml; in test [2] (Table 1, 100 mg/kg, 1 h before i.p. carrageenan, read 2 h later), 6.97 ± 3.81 x 10⁻⁵/ml; in test [2] (Table 1, 200 mg/kg), 0.66 ± 0.53 x 10⁻⁵/ml. Also, the “Change in Paw Volume” value in test [5] (100 mg/kg) was 0.13 ± 0.05 mL. The “(% Inhibition) of change in paw volume” value in test [5] (100 mg/kg) amounted to 52%. Moreover, in test [6] (Mus musculus, po, 1 hour after 2 mg of arachidonic acid to the ear, read-out: ED₅₀ (inhibition of the edematous response of the ear)), the ED50 was 44 mg/kg. For the same compound, the “Increase in Ear Thickness at 1 Hour (x 10⁻³ cm)” value in test [6] (Table 7, 50 mg/kg, p.o., 15 minutes before arachidonic acid) came to 12.2 ± 1.6 x 10⁻³ cm.
